Experiments:
[1] = 298.15 K; 101.33 kPa; Liquid; Pycnometric method
[2] = refractive index (Na D-line) (dimensionless); conditions: 298.15 K; 101.33 kPa; Liquid; Standard Abbe refractometry
[3] = mn = molality of the nth substance listed, in mol/kg; conditions: 101 kPa, Liquid; for viscosity: Capillary tube (Ostwald / Ubbelohde) method

COCCOCCO [2-(2-methoxyethoxy)ethanol]
Conditions	mass density [kg/m3]	refractive index
[1]	1014.39	–
[2]	–	1.4245

COCCOCCO [2-(2-methoxyethoxy)ethanol] + O
[3]
Conditions	viscosity [mPa·s]
275.15 K, m1 = 0.0099	1.004
275.15 K, m1 = 0.0209	1.009
275.15 K, m1 = 0.0309	1.014
275.15 K, m1 = 0.0396	1.018
275.15 K, m1 = 0.052	1.023
275.15 K, m1 = 0.061	1.028
275.15 K, m1 = 0.0706	1.032
275.15 K, m1 = 0.0799	1.037
275.15 K, m1 = 0.093	1.044
275.15 K, m1 = 0.1057	1.05
283.15 K, m1 = 0.0109	1.004
283.15 K, m1 = 0.0191	1.008
283.15 K, m1 = 0.0303	1.012
283.15 K, m1 = 0.0406	1.016
283.15 K, m1 = 0.0487	1.02
283.15 K, m1 = 0.0599	1.024
283.15 K, m1 = 0.0709	1.029
283.15 K, m1 = 0.0806	1.033
283.15 K, m1 = 0.09	1.037
283.15 K, m1 = 0.0901	1.037
283.15 K, m1 = 0.1009	1.041

[3]
Conditions	mass density [kg/m3]
275.15 K, Pycnometric method, m1 = 0.0099	1000.07
275.15 K, Pycnometric method, m1 = 0.0209	1000.18
275.15 K, Pycnometric method, m1 = 0.0309	1000.32
275.15 K, Pycnometric method, m1 = 0.0396	1000.42
275.15 K, Pycnometric method, m1 = 0.052	1000.56
275.15 K, Pycnometric method, m1 = 0.061	1000.66
275.15 K, Pycnometric method, m1 = 0.0706	1000.76
275.15 K, Pycnometric method, m1 = 0.0799	1000.86
275.15 K, Pycnometric method, m1 = 0.093	1000.98
275.15 K, Pycnometric method, m1 = 0.1057	1001.12
283.15 K, Buoyancy - hydrostatic balance with magnetic suspension - one sinker, m1 = 0.0109	999.8
283.15 K, Buoyancy - hydrostatic balance with magnetic suspension - one sinker, m1 = 0.0191	999.93
283.15 K, Buoyancy - hydrostatic balance with magnetic suspension - one sinker, m1 = 0.0303	1000.04
283.15 K, Buoyancy - hydrostatic balance with magnetic suspension - one sinker, m1 = 0.0406	1000.11
283.15 K, Buoyancy - hydrostatic balance with magnetic suspension - one sinker, m1 = 0.0487	1000.17
283.15 K, Buoyancy - hydrostatic balance with magnetic suspension - one sinker, m1 = 0.0599	1000.27
283.15 K, Buoyancy - hydrostatic balance with magnetic suspension - one sinker, m1 = 0.0709	1000.38
283.15 K, Buoyancy - hydrostatic balance with magnetic suspension - one sinker, m1 = 0.0806	1000.47
283.15 K, Buoyancy - hydrostatic balance with magnetic suspension - one sinker, m1 = 0.09	1000.56
283.15 K, Buoyancy - hydrostatic balance with magnetic suspension - one sinker, m1 = 0.0901	1000.59
283.15 K, Buoyancy - hydrostatic balance with magnetic suspension - one sinker, m1 = 0.1009	1000.68

CCOCCO [2-ethoxyethan-1-ol]
Conditions	mass density [kg/m3]	refractive index
[1]	925.05	–
[2]	–	1.4057

CCOCCO [2-ethoxyethan-1-ol] + O
[3]
Conditions	viscosity [mPa·s]
275.15 K, m1 = 0.0102	1.005
275.15 K, m1 = 0.0202	1.01
275.15 K, m1 = 0.0294	1.015
275.15 K, m1 = 0.0459	1.025
275.15 K, m1 = 0.0502	1.028
275.15 K, m1 = 0.0602	1.035
275.15 K, m1 = 0.071	1.042
275.15 K, m1 = 0.0818	1.05
275.15 K, m1 = 0.0902	1.057
275.15 K, m1 = 0.1008	1.065
283.15 K, m1 = 0.0067	1.002
283.15 K, m1 = 0.0191	1.006
283.15 K, m1 = 0.0303	1.01
283.15 K, m1 = 0.0392	1.014
283.15 K, m1 = 0.0492	1.018
283.15 K, m1 = 0.0598	1.022
283.15 K, m1 = 0.0682	1.026
283.15 K, m1 = 0.0799	1.032
283.15 K, m1 = 0.0885	1.036
283.15 K, m1 = 0.0906	1.037
283.15 K, m1 = 0.0996	1.042
283.15 K, m1 = 0.1004	1.043

[3]
Conditions	mass density [kg/m3]
275.15 K, Pycnometric method, m1 = 0.0102	999.95
275.15 K, Pycnometric method, m1 = 0.0202	999.95
275.15 K, Pycnometric method, m1 = 0.0294	999.95
275.15 K, Pycnometric method, m1 = 0.0459	999.96
275.15 K, Pycnometric method, m1 = 0.0502	999.96
275.15 K, Pycnometric method, m1 = 0.0602	999.97
275.15 K, Pycnometric method, m1 = 0.071	1000
275.15 K, Pycnometric method, m1 = 0.0818	1000
275.15 K, Pycnometric method, m1 = 0.0902	1000.01
275.15 K, Pycnometric method, m1 = 0.1008	1000.03
283.15 K, Buoyancy - hydrostatic balance with magnetic suspension - one sinker, m1 = 0.0067	999.7
283.15 K, Buoyancy - hydrostatic balance with magnetic suspension - one sinker, m1 = 0.0191	999.71
283.15 K, Buoyancy - hydrostatic balance with magnetic suspension - one sinker, m1 = 0.0303	999.71
283.15 K, Buoyancy - hydrostatic balance with magnetic suspension - one sinker, m1 = 0.0392	999.74
283.15 K, Buoyancy - hydrostatic balance with magnetic suspension - one sinker, m1 = 0.0492	999.72
283.15 K, Buoyancy - hydrostatic balance with magnetic suspension - one sinker, m1 = 0.0598	999.72
283.15 K, Buoyancy - hydrostatic balance with magnetic suspension - one sinker, m1 = 0.0682	999.73
283.15 K, Buoyancy - hydrostatic balance with magnetic suspension - one sinker, m1 = 0.0799	999.73
283.15 K, Buoyancy - hydrostatic balance with magnetic suspension - one sinker, m1 = 0.0885	999.73
283.15 K, Buoyancy - hydrostatic balance with magnetic suspension - one sinker, m1 = 0.0906	999.73
283.15 K, Buoyancy - hydrostatic balance with magnetic suspension - one sinker, m1 = 0.0996	999.76
283.15 K, Buoyancy - hydrostatic balance with magnetic suspension - one sinker, m1 = 0.1004	999.78

COCCO [2-methoxyethan-1-ol]
Conditions	mass density [kg/m3]	refractive index
[1]	959.03	–
[2]	–	1.4003
